Test results published in patent publication US20160051594A1, “Therapeutic Compositions and Uses Thereof” (MANUKA HEALTH NEW ZEALAND LIMITED, priority 2013, published 2016).

How the values were obtained:
[1] = tested on: human colorectal cancer cell line HCT-116; assay: Apoptotic assay (PE Annexin V, flow cytometry), HCT-116; type: cell-based; conditions: for % Apoptosis: 50 hours
Method: (§1) The human colorectal cell line HCT-116 was obtained from the American Type Culture Collection (Rockville, Md.). The butyrate resistant cell line was derived from HCT-116 by culturing the parental cells in increasing concentrations of butyrate as previously described in Bordonaro […]. The activation of beta-catenin by Wnt signaling mediates the effects of histone deacetylase inhibitors. Exp Cell Res. 2007; 313:1652-66 (including references therein). Colorectal cells were grown in alpha-MEM medium with 10% fetal bovine serum and antibiotics. The concentration of CAPE in the propolis-cyclodextrin complex CD1 was 1.79 μg/100 μg propolis solid encapsulated in the cyclodextrin, or 0.41 μg/100 μg cyclodextrin complex. Stock solutions were prepared in dimethyl sulfoxide, except for butyrate, which was dissolved in water at 1 M concentration. […] All cells (floating and attached) were harvested and stained for apoptotic and necrotic markers using a PE Annexin V Apoptosis Detection Kit I (BD Biosciences, #559763). Flow cytometry analyses were carried out with FACS Aria II and DiVa software. […] All data are presented as mean±standard deviation from at least three sets of independent experiments. Student T-test analysis was used to determine the significance of statistical differences. Differences were considered significant at P<0.05.

[2] = tested on: HCT-116-R cells (butyrate resistant, derived from HCT-116); assay: Apoptotic assay (PE Annexin V, flow cytometry), butyrate-resistant HCT-116-R; type: cell-based, human; conditions: for % Apoptosis: HCT-116-R, 50 hours
Method: as §1

[3] = tested on: human oesophageal squamous cell carcinoma cell line (KYSE-30); assay: Gastro-intestinal cancer anti-proliferative MTT assay, KYSE-30 (Examples 5-9); type: cell-based; conditions: Example 9
Method: Sample CD5 γ-cyclodextrin as prepared in Example 1 was assessed for its ability to modulate the viability and proliferation of human colorectal adenocarcinoma cells (DLD-1); human colon cancer cell line (HCT-116); human gastric carcinoma cell line (NCI-N87); and human oesophageal squamous cell carcinoma cell line (KYSE-30) as assessed by the MTT assay. The positive control, 5-fluorouracil (5-FU) was included at three concentrations; in addition to an unsupplemented cell control as a negative control in the study. [Do we include test compounds for comparison?.
The four human gastrointestinal carcinoma cell lines were revived from cryostorage and cultured in the presence of the test and reference samples. An MTT assay was then performed on the cultures to determine the effect of the samples on the cell viability and proliferation.
The test sample, and all other test samples in Examples 5-8 were dissolved in 15% ethanol/Hanks Balanced Salt Solution (ETOH)/HBSS to a concentration of 2 mg/mL solids. In the assay the final concentration of the samples was 200 μg/ml with a final EtOH concentration of 1.5%.
• 1. Human colorectal adenocarcinoma cells (ATCC CCI-221, DLD-1)(ATCC, Bethesda, Md., USA) • 2. Human gastric carcinoma cells (ATCC CRL-5822, NCI-N87)(ATCC, Bethesda, Md., USA) • 3. Human oesophageal squamous cell carcinoma (ECACC, KYSE-30)(Sigma Aldrich, Auckland, NZ) • 4. Human colon carcinoma cells (ECACC HCT-116)(Sigma Aldrich, Auckland, NZ) • 5. Penicillin-streptomycin solution: 10000 units/ml penicillin, 10 mg/ml streptomycin in 0.9% NaCl (Sigma Cat #P-0781). Stored at −20° C. • 6. For DLD-1 cells: DMEM culture medium (Invitrogen Cat #12100-046). Stored at 4° C. • 7. For NCI-N87 cells: RPMI-1640 medium modified to contain 2 mM L-glutamine, 10 mM HEPES, 1 mM sodium pyruvate, 4500 mg/L glucose, and 1500 mg/L sodium bicarbonate (Sigma R6504). Stored at 4° C. • 8. For KYSE-410 cells: RPMI-1640 medium modified to contain 2 mM L-glutamine (Sigma R6504). Stored at 4° C. • 9. For HCT-116 cells: McCoy's 5A medium modified to contain 2 mM L-glutamine (Sigma M48792). Stored at 4° C. • 10. […]

[4] = tested on: human colorectal adenocarcinoma cells (DLD-1); assay: MTT proliferation assay, DLD-1 cells (Examples 2 and 3); type: cell-based
Method: Test samples shown below in Table 3 were assessed for their ability to modulate the viability and proliferation of human colorectal adenocarcinoma cells (DLD-1) as assessed by the MTT assay. A positive control, 5-Fluorouracil (5-FU) was included in addition to an unsupplemented cell control (negative control) in the study. All samples were normalized to 200 μg/ml total solids.
Thus, DLD-1 colon cancer cells were exposed to: • a tincture originally containing 25% solids by mass propolis which then diluted in the test solution to give 200 μg/ml total solids. The tincture was used to manufacture the cyclodextrin-encapsulated propolis samples. • Cyclodextrin propolis (γ-cyclodextrin encapsulated with 25% propolis tincture), CD1 from Table 2 in Example 1 • Cyclodextrin propolis+CAPE (γ-cyclodextrin encapsulated 25% propolis tincture with added CAPE to double the concentration of CAPE relative to the tincture), CD2 from Table 2 in Example 1 • γ-cyclodextrin alone (CAVAMAX W8 food gamma cyclodextrin) • 5-flurorouracil at 7.50 ng/ml as a positive control
All cyclodextrin-encapsulated samples and γ-cyclodextrin alone were assayed on a per weight of sample, and so contain at most 50 μg/ml total solids as propolis.
Human colorectal adenocarcinoma epithelial cell lines were revived from cryostorage and cultured in the presence of the test and reference samples. The culture conditions for the cells were those described by the supplier of the cells (ATCC). An MTT assay was then performed on the cultures to determine the effect of the samples on the cell proliferation.
• 1. The human colorectal adenocarcinoma cells (DLD-1) obtained from the American Type Culture Collection USA were revived from cryostorage. • 2. Following initial propagation using the media described above (see Medium Preparation), the culture was subcultured using the trypsin-EDTA as follows. The media was removed and 5 ml of the trypsin-EDTA solution added and incubated at 37° C. for 5 min or until all the cells had detached. The trypsin was neutralised by adding an equal volume of DMEM medium and the culture centrifuged at 300 g (1200 rpm) for 5 min at 4° C. • 3. The supernatant was decanted and the cell pellets resuspended in medium DMEM, FBS (10%), penicillin (100 units/ml), streptomycin (100 μg/ml). The cells were cultured at 37° C. in 5% CO2/95% air. • 4. After reaching confluence, the cells were detached using trypsin-EDTA and centrifuged as described in 2 above. • 5. The supernatants were discarded and the cells resuspended in DMEM and supplements as described in 3 above at 7.5×10^4 cells per ml. A total volume of 23 mls of the cell suspension was required. • 6. Into each well of three 96 well plates, 180 μl of the cells ([…]) or medium was added as indicated in the plate layout below. The plates were incubated at 5% CO2/95% air at 37° C. for 8 h which was sufficient to allow the cells to strongly adhere. • 7. To each well, 20 μl of each of the test samples or positive control was added as indicated in the diagrams above. To the wells labelled ‘medium’ or ‘cells only’, 20 μl of 15% ETOH/HBSS was added. Each sample was assessed in replicates of 6, while the controls on all three plates were assessed in replicates of 9 (combined triplicates) • 8. The total volume in each well was 200 μl. • 9. The plates were incubated at 37° C. in 5% CO2/95% air for 19 h.
• 1. On completion of the incubation, 20 μl of MTT working solution (5 mg/ml) was added to all wells and incubated for 2 hr at 37° C. in 5% CO2/95% air. • 2. 100 μl of MTT lysis buffer was then added and the plates incubated for 3 hr at 37° C. on a shaker in 5% CO2/95% air, followed by pipetting to break up and dissolve the crystals until fully solubilized. The plates were centrifuged at 1200 rpm for 10 minutes to pelletize any remaining insoluble material. From each well 200 μl aliquots were transferred to fresh 96 well plates. The plates were read by a VersaMax microplate reader at 570 nm. • 3. […]

Compound: CCCC(=O)O [butyrate]
- % Apoptosis ([1]; HCT-116, 5 mM): 57.5%
- apoptosis relative to cells only ([1]; HCT-116, butyrate 5 mM): 35%
- % Apoptosis ([2]; 5 mM): 11.2%

Compound: OC[C@H]1O[C@@H]2O[C@H]3[C@H](O)[C@@H](O)[C@@H](O[C@H]4[C@H](O)[C@@H](O)[C@@H](O[C@H]5[C@H](O)[C@@H](O)[C@@H](O[C@H]6[C@H](O)[C@@H](O)[C@@H](O[C@H]7[C@H](O)[C@@H](O)[C@@H](O[C@H]8[C@H](O)[C@@H](O)[C@@H](O[C@H]9[C@H](O)[C@@H](O)[C@@H](O[C@H]1[C@H](O)[C@H]2O)O[C@@H]9CO)O[C@@H]8CO)O[C@@H]7CO)O[C@@H]6CO)O[C@@H]5CO)O[C@@H]4CO)O[C@@H]3CO [CAVAMAX W8 Food gamma Cyclodextrin, gamma-cyclodextrin]
- inhibition at 200 µg/mL ([3]; Homo sapiens, KYSE-30, KYSE-30, 200 μg/ml): 8.8%
- Mean (OD 570 nm) ([3]; KYSE-30, 200 μg/ml): 0.3056
- % inhibition ([3]; KYSE-30, 200 μg/ml, listed as Gamma-CD): 8.85%
- % inhibition ([4]; DLD-1, 200 μg/ml): 9.11%
- Mean (OD 570 nm) ([4]; DLD-1, 200 μg/ml): 0.6405
- inhibition at 200 µg/mL ([4]; Homo sapiens, DLD-1, DLD-1, 200 μg/ml): 9.1%

Compound: O=C(/C=C/c1ccc(O)c(O)c1)OCCc1ccccc1 [CAPE, caffeic acid phenethyl ester]
- % Apoptosis ([1]; HCT-116, 1.2 ug/ml): 18.3%
- apoptosis relative to the negative control ([1]; HCT-116, CAPE 1.2 ug/ml): no significant increase in apoptosis
- % Apoptosis ([2]; 1.2 ug/ml): 9.7%
- apoptosis relative to the negative control ([2]; HCT-R, CAPE 1.2 ug/ml alone): did not undergo significant apoptosis
- Mean (OD 570 nm) ([4]; DLD-1, 200 μg/ml): 0.0777

Compound: O=c1c(O)c(-c2ccccc2)oc2cc(O)cc(O)c12 [Galangin]
- Mean (OD 570 nm) ([4]; DLD-1, 200 μg/ml): 0.1411

Compound: O=c1cc(-c2ccccc2)oc2cc(O)cc(O)c12 [Chrysin]
- Mean (OD 570 nm) ([4]; DLD-1, 200 μg/ml): 0.1233
